Read-outs that look alike come from different tables or passages of the source.
What was measured:
[1] = test system: Wistar Han (Crl:WI[Han]) rats; test: Fertility and early embryonic development study in rats; type: in vivo, rat
[2] = as above; type: in vivo, rat; conditions: both, Wistar Han, rat, in vivo, oral
monkeys = conditions: doses up to 600 mg/kg/day; cited from earlier work
[3] = cited from earlier work
[4] = Maternal toxicokinetics, rat EFD study; type: in vivo; conditions: for Cmax: female, Wistar Han, in vivo, po; for Cmax / Exposure Margin AUC24 / Exposure Margin Cmax: rat; for Mean Systemic Exposure AUC24: maternal rat; for Exposure Margin AUC24: relative to predicted human AUC24 68.6 μg h/mL; for Exposure Margin Cmax: relative to predicted human Cmax 4.14 μg/mL
[5] = test system: New Zealand White [Hra:(NZW)SPF] rabbits
in vivo = conditions: female, New Zealand White, rabbit, 1000 mg/kg/day
[6] = Maternal toxicokinetics, rabbit EFD study; type: in vivo; conditions: for Cmax: female, New Zealand White, in vivo, po; for Cmax / Exposure Margin AUC24 / Exposure Margin Cmax: rabbit; for Mean Systemic Exposure AUC24: maternal rabbit; for Exposure Margin AUC24: relative to predicted human AUC24 68.6 μg h/mL; for Exposure Margin Cmax: relative to predicted human Cmax 4.14 μg/mL
[7] = 1000 mg/kg/day, GD 14 uterine examination

CC(C)(C)[C@H](NC(=O)C(F)(F)F)C(=O)N1C[C@H]2[C@@H]([C@H]1C(=O)N[C@H](C#N)C[C@@H]1CCNC1=O)C2(C)C [NMV, nirmatrelvir]
Corpora lutea [1, 7]: 12.7 ± 1.6
Implantation sites [1, 7]: 10.5 ± 3.1
Live embryos [1, 7]: 9.6 ± 3.2
Resorptions [1, 7]: 1.0 ± 0.8
Number of pregnant females ([1]; 1000 mg/kg/day, of 20): 20
Male Food Consumption, Premating Day 1−14 ([1]; 1000 mg/kg/day, p ≤ 0.05): 20.9 ± 0.9 g/day
Effects on male or female fertility ([1]; up to 1000 mg/kg/day): no NMV-related effects on male or female fertility
Systemic toxicity in males and females ([1]; up to 1000 mg/kg/day): no evidence of systemic toxicity
NOAEL [2]: 1000 mg/kg/day
Adverse findings in 2-week general toxicology study (monkeys): lack of adverse findings
Genetic toxicity [3]: lack of genetic toxicity
Cmax ([4]; 100 mg/kg/day): 29000 ± 11000 ng/mL
Cmax ([4]; 300 mg/kg/day): 43200 ± 14400 ng/mL
Cmax ([4]; 1000 mg/kg/day): 65400 ± 18700 ng/mL
Mean Systemic Exposure AUC24 ([4]; GD 17, 100 mg/kg/day): 75.5 ± 12.4 μgh^•/mL
Mean Systemic Exposure AUC24 ([4]; GD 17, 300 mg/kg/day): 346 ± 92.0 μgh^•/mL
Mean Systemic Exposure AUC24 ([4]; GD 17, 1000 mg/kg/day): 535 ± 330 μgh^•/mL
Exposure Margin AUC24 ([4]; GD 17, 100 mg/kg/day): 1.1x
Exposure Margin Cmax ([4]; GD 17, 100 mg/kg/day): 7.0x
Exposure Margin AUC24 ([4]; GD 17, 300 mg/kg/day): 5.0x
Exposure Margin Cmax ([4]; GD 17, 300 mg/kg/day): 10x
Exposure Margin AUC24 ([4]; GD 17, 1000 mg/kg/day): 7.8x
Exposure Margin Cmax ([4]; GD 17, 1000 mg/kg/day): 16x
Corpora lutea ([5]; 100 mg/kg): 9.7 ± 1.5
Fetal weight (g)/Litter ([5]; 100 mg/kg): 40.2 ± 3.0 g
Implantation sites ([5]; 100 mg/kg): 8.2 ± 1.7
Maternal Body Weight (GD 29) ([5]; 100 mg/kg): 3.6 ± 0.2 kg
Maternal Body Weight Gain (GD 7−29) ([5]; 100 mg/kg): 0.5 ± 0.1 kg
Maternal Food Consumption (GD 7−29) ([5]; 100 mg/kg): 2983.9 ± 289.5 g
Post-implantation loss ([5]; 100 mg/kg): 3.3 ± 7.7%
Pre-implantation loss ([5]; 100 mg/kg): 14.4 ± 17.9%
Corpora lutea ([5]; 300 mg/kg): 9.4 ± 2.1
Fetal weight (g)/Litter ([5]; 300 mg/kg): 40.3 ± 4.5 g
Implantation sites ([5]; 300 mg/kg): 8.6 ± 2.3
Maternal Body Weight (GD 29) ([5]; 300 mg/kg): 3.6 ± 0.2 kg
Maternal Body Weight Gain (GD 7−29) ([5]; 300 mg/kg): 0.4 ± 0.1 kg
Maternal Food Consumption (GD 7−29) ([5]; 300 mg/kg): 2908.9 ± 500.1 g
Post-implantation loss ([5]; 300 mg/kg): 5.4 ± 7.4%
Pre-implantation loss ([5]; 300 mg/kg): 9.5 ± 10.2%
Corpora lutea ([5]; 1000 mg/kg): 9.5 ± 1.7
Implantation sites ([5]; 1000 mg/kg): 8.8 ± 1.6
Maternal Body Weight (GD 29) ([5]; 1000 mg/kg): 3.6 ± 0.2 kg
Maternal Body Weight Gain (GD 7−29) ([5]; 1000 mg/kg): 0.4 ± 0.1 kg
Maternal Food Consumption (GD 7−29) ([5]; 1000 mg/kg): 2703.0 ± 514.2 g
Post-implantation loss ([5]; 1000 mg/kg): 3.2 ± 4.9%
Pre-implantation loss ([5]; 1000 mg/kg): 6.4 ± 11.8%
Fetal weight (g)/Litter ([5]; 1000 mg/kg, p ≤ 0.01): 37.7 ± 4.4 g
Mean maternal body weight gains and food consumption versus control ([5]; rabbit, 1000 mg/kg/day): slightly lower than control
Effects on embryo-fetal viability ([5]; up to 1000 mg/kg/day): no NMV-related effects on embryo-fetal viability
Effects on external, visceral, or skeletal morphological development ([5]; up to 1000 mg/kg/day): no NMV-related effects on external, visceral, or skeletal morphological development
NOAEL (in vivo): 300 mg/kg/day
Cmax ([6]; 100 mg/kg/day): 17000 ± 6100 ng/mL
Cmax ([6]; 300 mg/kg/day): 42900 ± 11100 ng/mL
Cmax ([6]; 1000 mg/kg/day): 99600 ± 46500 ng/mL
Mean Systemic Exposure AUC24 ([6]; GD 19, 100 mg/kg/day): 98.7 ± 27.4 μgh^•/mL
Mean Systemic Exposure AUC24 ([6]; GD 19, 300 mg/kg/day): 195 ± 56.8 μgh^•/mL
Mean Systemic Exposure AUC24 ([6]; GD 19, 1000 mg/kg/day): 689 ± 206 μgh^•/mL
Exposure Margin AUC24 ([6]; GD 19, 100 mg/kg/day): 1.4x
Exposure Margin Cmax ([6]; GD 19, 100 mg/kg/day): 4.1x
Exposure Margin AUC24 ([6]; GD 19, 300 mg/kg/day): 2.8x
Exposure Margin Cmax ([6]; GD 19, 300 mg/kg/day): 10x
Exposure Margin AUC24 ([6]; GD 19, 1000 mg/kg/day): 10x
Exposure Margin Cmax ([6]; GD 19, 1000 mg/kg/day): 24x
